Earlier results as cited in patent publication US20040067887A1, “Human VNO receptor (R1)” (priority 2000, published 2004).

Columns and labels:
[1] = test system: human VNO; conditions: for physiological responses after administration to the human VNO: administered to the human VNO
[2] = test system: human brain; conditions: human volunteers; delivered non-specifically to the nasal cavity; no detectable odor (Sobel et al. 1999)

SMILES | site specificity of physiological responses in vivo ([1]; human subjects, VNO versus olfactory or respiratory epithelium (Monti-Bloch et al. 1994)) | activation of brain regions detected by fMRI [2] | physiological responses after administration to the human VNO [1]
CC(=O)Oc1ccc2c(c1)CC[C@@H]1[C@@H]2CC[C@]2(C)C=CC[C@@H]12 [PH15, estra-1,3,5(10),16-tetraen-3yl acetate] | induces physiological responses in vivo only when applied specifically to the VNO | dose-dependent activation of the anterior medial thalamus, the inferior frontal gyrus, and other regions of the human brain | 
C[C@@]12C=CC[C@H]1[C@@H]1CCC3=CC(=O)CC[C@]3(C)[C@H]1CC2 [androsta-4,16-dien-3-one] |  |  | induce bradycardia, bradypnea, increases in core body temperature, and other physiological responses
C[C@@]12C=CC[C@H]1[C@@H]1CCc3cc(O)ccc3[C@H]1CC2 [estra-1,3,5(10),16-tetraen-3-ol] |  |  | induce bradycardia, bradypnea, increases in core body temperature, and other physiological responses
